Results as given in patent US7488712B2, “Histone deacetylase inhibitors and methods for producing the same” (Kyushu Institute of Technology, priority 2002, dated 2009).
Values belong to the compound of their own block, whether it stands above or below them. *1 amine or outer side, *2 acyl side, *3 side chain or, on linkers, in order; H or OH if unused. Where a SMILES comes first, the peptide text is derived from it. Bridges are numbered along the chain shown (N, C = ends). Roman numbers before positions name the chains, in order. [ ]: non-standard residue; d: D form. The star is where a group is joined. hNle(7-SH) = O=C([C@H](CCCCCS[*:3])N[*:1])[*:2]; X1 = CN(C)C(=O)c1cc(S*)ccc1[N+](=O)[O-]; Gly((CH2)5SH) = N[C@@H](CCCCCS)C(=O)O; dPip = O=C(O)[C@H]1CCCCN1

Tests used:
mouse HDAC6 = target: T1, mouse HDAC6 (Mus musculus, UniProt Q9Z2V5); test: In vitro HDAC inhibition activity, [3H]-acetylated histone substrate, HDAC6; assay type: biochemical
T1 construct: HA; made in house; host or cells: 293T cells (transient transfection, anti-HA immunoprecipitation, HA peptide elution)
T1 sequence (Q9Z2V5 1-1149): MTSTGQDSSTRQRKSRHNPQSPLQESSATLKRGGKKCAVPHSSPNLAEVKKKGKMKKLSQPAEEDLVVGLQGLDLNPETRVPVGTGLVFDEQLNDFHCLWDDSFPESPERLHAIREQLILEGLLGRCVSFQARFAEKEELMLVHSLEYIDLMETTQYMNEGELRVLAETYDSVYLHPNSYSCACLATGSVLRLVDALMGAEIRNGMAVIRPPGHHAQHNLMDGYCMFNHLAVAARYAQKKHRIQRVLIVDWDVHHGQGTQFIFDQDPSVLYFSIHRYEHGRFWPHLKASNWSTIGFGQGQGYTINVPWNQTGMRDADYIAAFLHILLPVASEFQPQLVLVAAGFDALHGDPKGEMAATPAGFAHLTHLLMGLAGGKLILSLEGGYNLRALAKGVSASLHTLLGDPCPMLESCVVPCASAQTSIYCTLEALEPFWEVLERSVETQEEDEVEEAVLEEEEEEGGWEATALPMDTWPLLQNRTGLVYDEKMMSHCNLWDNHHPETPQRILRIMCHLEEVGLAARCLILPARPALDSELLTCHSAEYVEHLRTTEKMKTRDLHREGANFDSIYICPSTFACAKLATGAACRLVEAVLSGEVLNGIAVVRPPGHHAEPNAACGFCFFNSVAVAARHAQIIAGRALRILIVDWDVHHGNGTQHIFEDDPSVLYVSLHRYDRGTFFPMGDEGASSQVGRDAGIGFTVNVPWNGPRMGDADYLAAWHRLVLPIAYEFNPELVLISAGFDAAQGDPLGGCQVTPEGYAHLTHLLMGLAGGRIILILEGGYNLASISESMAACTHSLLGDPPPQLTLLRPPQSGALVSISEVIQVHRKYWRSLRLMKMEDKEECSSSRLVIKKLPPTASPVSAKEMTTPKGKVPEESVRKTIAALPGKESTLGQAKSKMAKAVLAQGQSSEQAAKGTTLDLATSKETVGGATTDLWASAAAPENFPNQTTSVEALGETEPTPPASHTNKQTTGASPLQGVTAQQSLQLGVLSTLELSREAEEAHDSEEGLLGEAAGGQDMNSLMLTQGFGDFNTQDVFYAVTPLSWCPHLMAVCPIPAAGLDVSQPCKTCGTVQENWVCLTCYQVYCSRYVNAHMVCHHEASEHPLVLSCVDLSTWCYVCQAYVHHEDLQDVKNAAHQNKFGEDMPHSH
Protocol: (§1) To measure HDAC inhibition activity, an HDAC solution was prepared as described below. 1×10^7 of 293T cells were plated on to a 100-mm dish and, after 24 hours, transfected with vectors (1 μg) expressing human HDAC1 and HDAC4 or mouse HDAC6, using LipofectAmine 2000 reagent (Life Technologies, Inc. Gaithersburg, Md.). […] The vectors were introduced for five hours in OPTI-MEM. The medium was then replaced with Dulbecco's modified Eagle's medium (DMEM), and incubated for 19 hours. The cells were washed with PBS, suspended in lysis buffer (50 mM Tris-HCl (pH7.5), 120 mM NaCl, 5 mM EDTA, and 0.5% Nonidet P-40), and sonicated. The supernatant was collected by centrifugation and nonspecific protein was removed using Protein A/G plus agarose beads (Santa Cruz Biotechnologies, Inc.). Anti-FLAG M2 antibodies (Sigma-Aldrich, Inc.) were added to the supernatant of cells expressing HDAC1 or HDAC4. Anti-HA antibodies (clone 3F10, Roche Molecular Biochemicals) were added to the supernatant of cells expressing HDAC6. Reaction in the respective mixtures was carried out at 4° C. for one hour. The resulting reaction mixtures were independently mixed with agarose beads and further reacted at 4° C. for one hour. The agarose beads were washed three times with lysis buffer and then washed once with HD buffer (20 mM Tris-HCl (pH8.0), 150 mM NaCl, 10% glycerol, and a complete protease inhibitor cocktail (Boehringer Mannheim, Germany)). […] The HDAC reaction solution was used for determining HDAC inhibition activity as shown below.
(§2) In vitro HDAC inhibition activity was evaluated as follows: A test compound was dissolved in DMSO and adjusted to 10 mM. This was used as an inhibitor stock solution. […] These reactions were stopped by adding 10 μl HCl. The [^3H] acetic acid excised by the enzyme reaction was extracted with ethyl acetate and subjected to radioactive dose measurement. As a negative control, the same procedure was carried out in which no inhibitor was added to the reaction system. The inhibition activity was expressed as a 50% inhibition concentration (“IC50 (nM)”) of the HDAC activity in the negative control (Tables 1 to 4).

human HDAC4 = target: T2, human HDAC4 (Homo sapiens, UniProt P56524); test: In vitro HDAC inhibition activity, [3H]-acetylated histone substrate, HDAC4; assay type: biochemical
T2 construct: FLAG; made in house; host or cells: 293T cells (transient transfection, anti-FLAG immunoprecipitation, FLAG peptide elution)
T2 sequence (O15379 whole entry partner): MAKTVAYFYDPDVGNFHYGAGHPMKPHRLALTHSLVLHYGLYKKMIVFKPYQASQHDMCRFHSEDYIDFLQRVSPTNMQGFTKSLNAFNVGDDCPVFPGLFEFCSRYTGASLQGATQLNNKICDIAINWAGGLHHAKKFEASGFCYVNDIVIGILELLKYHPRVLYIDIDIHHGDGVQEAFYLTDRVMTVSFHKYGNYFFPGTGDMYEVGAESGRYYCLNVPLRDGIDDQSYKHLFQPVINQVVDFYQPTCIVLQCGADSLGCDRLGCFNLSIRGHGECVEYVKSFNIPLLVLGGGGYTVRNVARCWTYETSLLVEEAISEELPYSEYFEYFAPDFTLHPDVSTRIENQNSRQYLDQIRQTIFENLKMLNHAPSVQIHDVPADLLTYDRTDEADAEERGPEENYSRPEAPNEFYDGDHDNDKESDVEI
T2 sequence (P56524 whole entry): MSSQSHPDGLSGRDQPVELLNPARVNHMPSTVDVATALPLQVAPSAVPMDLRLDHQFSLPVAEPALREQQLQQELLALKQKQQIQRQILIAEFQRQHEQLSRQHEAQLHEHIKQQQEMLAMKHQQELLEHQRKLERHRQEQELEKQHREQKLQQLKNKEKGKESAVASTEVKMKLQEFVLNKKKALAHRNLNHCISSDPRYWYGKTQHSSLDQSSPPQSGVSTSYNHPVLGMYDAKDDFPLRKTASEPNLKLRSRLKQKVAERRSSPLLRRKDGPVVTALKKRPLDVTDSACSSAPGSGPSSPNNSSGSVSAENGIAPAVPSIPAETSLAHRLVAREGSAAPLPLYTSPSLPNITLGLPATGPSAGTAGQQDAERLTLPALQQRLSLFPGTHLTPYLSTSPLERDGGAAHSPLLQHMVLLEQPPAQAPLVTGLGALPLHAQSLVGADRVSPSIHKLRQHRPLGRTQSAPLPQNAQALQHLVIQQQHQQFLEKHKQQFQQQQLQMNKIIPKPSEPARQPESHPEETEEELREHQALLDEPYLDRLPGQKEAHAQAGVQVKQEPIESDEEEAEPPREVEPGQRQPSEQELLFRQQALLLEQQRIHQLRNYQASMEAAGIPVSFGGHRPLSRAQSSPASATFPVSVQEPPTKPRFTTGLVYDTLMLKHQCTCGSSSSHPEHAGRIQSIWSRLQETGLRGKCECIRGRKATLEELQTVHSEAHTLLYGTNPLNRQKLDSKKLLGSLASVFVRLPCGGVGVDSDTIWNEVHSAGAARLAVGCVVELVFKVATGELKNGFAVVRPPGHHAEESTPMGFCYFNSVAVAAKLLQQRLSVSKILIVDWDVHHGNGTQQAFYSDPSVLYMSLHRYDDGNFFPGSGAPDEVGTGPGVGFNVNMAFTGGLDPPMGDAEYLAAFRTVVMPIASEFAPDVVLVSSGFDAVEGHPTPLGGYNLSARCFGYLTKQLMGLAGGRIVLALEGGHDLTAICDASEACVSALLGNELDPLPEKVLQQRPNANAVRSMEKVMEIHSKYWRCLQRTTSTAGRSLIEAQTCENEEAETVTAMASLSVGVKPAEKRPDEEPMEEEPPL
Protocol: as §1, §2

[1] = test system: human wild-type p21 promoter; test: p21 promoter-inducing activity (luciferase) in MFLL-9 cells; assay type: cell-based
Protocol: The HDAC inhibition activity in vivo was measured using p21 promoter-inducing activity as an index, as shown below. The MFLL-9 cells employed for the experiments stably maintained fusion genes of human wild-type p21 promoter and luciferase (Dr. B. Vogelstaein). Using phenol red-free DMEM medium comprising 10% FBS, cultivation was carried out in a steam-saturated incubator at 37° C. with 5% carbon dioxide. The MFLL-9 cells were plated at a density of 85,000 cells/well on a 96-well microtiter plate, each in 99 μl of the above-mentioned medium. These were then cultivated for six hours. One μl of test compound solution was added to each well, which was then cultured for another 18 hours.
The intensity of luminescence caused by the product of the enzyme reaction for intracellular luciferase expression was measured using Luc Lite (Packard BioScience Company). A group in which test compounds were not added was used as a negative control group. The values measured for this group were used as a standard. The activities for each concentration of added test compound were expressed relative to the above-mentioned standard value, 1.

human HDAC1 = target: T3, human HDAC1 (Homo sapiens, UniProt Q13547); test: In vitro HDAC inhibition activity, [3H]-acetylated histone substrate, HDAC1; assay type: biochemical
T3 construct: FLAG; made in house; host or cells: 293T cells (transient transfection, anti-FLAG immunoprecipitation, FLAG peptide elution)
T3 sequence (Q13547 whole entry): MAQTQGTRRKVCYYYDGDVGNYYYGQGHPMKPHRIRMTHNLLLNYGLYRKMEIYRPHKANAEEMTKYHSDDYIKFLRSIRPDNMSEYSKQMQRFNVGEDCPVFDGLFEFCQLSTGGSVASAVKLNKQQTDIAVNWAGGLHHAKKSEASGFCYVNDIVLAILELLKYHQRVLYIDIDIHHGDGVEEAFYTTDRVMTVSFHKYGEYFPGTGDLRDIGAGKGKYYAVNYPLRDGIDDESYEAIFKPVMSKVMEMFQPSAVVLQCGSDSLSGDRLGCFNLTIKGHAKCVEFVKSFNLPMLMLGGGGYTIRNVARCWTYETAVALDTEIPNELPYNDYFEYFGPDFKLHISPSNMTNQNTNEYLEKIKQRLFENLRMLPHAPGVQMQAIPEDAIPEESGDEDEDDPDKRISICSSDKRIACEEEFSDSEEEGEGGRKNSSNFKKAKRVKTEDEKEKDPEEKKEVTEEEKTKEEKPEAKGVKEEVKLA
Protocol: as §1, §2

[2] = Table 1, X = H (coexisting with DTT)
[3] = Table 1, X = H (coexisting with DTT), 50% of maximum active value for TSA
[4] = Table 3, hybrid with DTT (/DTT)

IC50 (mouse HDAC6; Table 2, homodimer): 745000 nM
IC50 (human HDAC4; Table 2, homodimer): 505 nM
EC50 ([1]; Table 2, homodimer): 235 µM
IC50 (human HDAC1; Table 2, homodimer): 983 nM
Structure (SMILES): CC[C@H](C)[C@@H]1NC(=O)[C@@H](Cc2ccc(OC)cc2)NC(=O)[C@H](CCCCCCCSSCCCCCCC[C@@H]2NC(=O)[C@H]3CCCN3C(=O)[C@H]([C@@H](C)CC)NC(=O)[C@@H](Cc3ccc(OC)cc3)NC2=O)NC(=O)[C@H]2CCCN2C1=O [SCOP 308, cyclo(-L-Am9(-)-D-Tyr(Me)-L-Ile-D-Pro-]

IC50 (mouse HDAC6; Table 2, homodimer): 1.32e+06 nM
IC50 (human HDAC4; Table 2, homodimer): 319 nM
IC50 (human HDAC1; Table 2, homodimer): 153 nM
Structure (SMILES): CC[C@H](C)[C@@H]1NC(=O)[C@@H](Cc2ccc(OC)cc2)NC(=O)[C@H](CCCCCCSSCCCCCC[C@@H]2NC(=O)[C@H]3CCCN3C(=O)[C@H]([C@@H](C)CC)NC(=O)[C@@H](Cc3ccc(OC)cc3)NC2=O)NC(=O)[C@H]2CCCN2C1=O [SCOP 306, cyclo(-L-Am8(-)-D-Tyr(Me)-L-Ile-D-Pro-]

IC50 (mouse HDAC6; Table 2, homodimer): > 500000 nM
IC50 (human HDAC4; Table 2, homodimer): > 500000 nM
EC50 ([1]; Table 2, homodimer): > 100 µM
IC50 (human HDAC1; Table 2, homodimer): 7200 nM
Structure (SMILES): CC[C@H](C)[C@@H]1NC(=O)[C@@H](Cc2ccc(OC)cc2)NC(=O)[C@H](CCCCSSCCCC[C@@H]2NC(=O)[C@H]3CCCN3C(=O)[C@H]([C@@H](C)CC)NC(=O)[C@@H](Cc3ccc(OC)cc3)NC2=O)NC(=O)[C@H]2CCCN2C1=O [SCOP 302, cyclo(-L-Am6(-)-D-Tyr(Me)-L-Ile-D-Pro-]

More lines, now with the values behind:

Structure (SMILES): CC[C@H](C)[C@@H]1NC(=O)[C@@H](Cc2ccc(OC)cc2)NC(=O)[C@H](CCCCCS)NC(=O)[C@@H]2CCCN2C1=O [SCOP 148] (cyclo([Gly((CH2)5SH)][dY](Me)IP))
IC50 (mouse HDAC6; [2]): > 500000 nM
IC50 (human HDAC4; [2]): 17 nM
EC50 [1, 3]: 6.72 µM
IC50 (human HDAC1; [2]): 81.4 nM

Structure (SMILES): CC[C@H](C)[C@@H]1NC(=O)[C@@H](Cc2ccc(OC)cc2)NC(=O)[C@H](CCCCCSSCCCCC[C@@H]2NC(=O)[C@H]3CCCCN3C(=O)[C@H]([C@@H](C)CC)NC(=O)[C@@H](Cc3ccc(OC)cc3)NC2=O)NC(=O)[C@H]2CCCCN2C1=O [SCOP 300, cyclo(-L-Am7(-)-D-Tyr(Me)-L-Ile-D-Pip-] (I: cyclo([hNle(7-SH)][dY](Me)I[dPip]) / II: cyclo([hNle(7-SH)][dY](Me)I[dPip]); disulfide I:1-II:1)
IC50 (mouse HDAC6; Table 2, homodimer): 255000 nM
IC50 (human HDAC4; Table 2, homodimer): 36.2 nM
EC50 ([1]; Table 2, homodimer): 7.37 µM
IC50 (human HDAC1; Table 2, homodimer): 61.1 nM

Structure (SMILES): CC[C@H](C)[C@@H]1NC(=O)[C@@H](Cc2ccc(OC)cc2)NC(=O)[C@H](CCCCCSSc2ccc([N+](=O)[O-])c(C(=O)N(C)C)c2)NC(=O)[C@H]2CCCN2C1=O [SCOP 403, cyclo(-L-Am7(SEll)-D-Tyr(Me)-L-Ile-D-Pro-)] (cyclo([hNle(7-SH)](X1)[dY](Me)I[dP]))
IC50 (mouse HDAC6; [4]): 4730 nM
IC50 (mouse HDAC6; Table 3, hybrid, without DTT): 6080 nM
IC50 (human HDAC4; [4]): 1.53 nM
IC50 (human HDAC4; Table 3, hybrid, without DTT): 18.9 nM
EC50 [1, 4]: 0.748 µM
EC50 ([1]; Table 3, hybrid, without DTT): 1.8 µM
IC50 (human HDAC1; [4]): 1.15 nM
IC50 (human HDAC1; Table 3, hybrid, without DTT): 21.5 nM

Structure (SMILES): CC[C@H](C)[C@@H]1NC(=O)[C@@H](Cc2ccc(OC)cc2)NC(=O)[C@H](CCCCCS)NC(=O)[C@H]2CCCCN2C1=O [SCOP 150] (cyclo([Gly((CH2)5SH)][dY](Me)I[dPip]))
IC50 (mouse HDAC6; [2]): 5560 nM
IC50 (human HDAC4; [2]): 4.26 nM
EC50 [1, 3]: 0.504 µM
IC50 (human HDAC1; [2]): 2.1 nM
